23 compounds from ChEMBL document CHEMBL1201862, “PubChem BioAssay data set” (2004) can be followed below.

“And” between values parts separate entries of the source, which are not always exact repeats. Equal entries are not always repeated. The source made the active and inactive calls.

A short description of test [1]: Luminescence Cell-Based Dose Retest to Confirm Inhibitors of Cancer Stem Cells. [Related pubchem assays (depositor defined):AID2717, AID2721]. The class given is functional. The following applies: Homo sapiens.
The next test has as its target Cytochrome P450 2C19 (Homo sapiens, UniProt P33261). The test is described as follows: Cytochrome panel assay with activity outcomes. Panel member name: p450-cyp2c19 Compounds with AC50 equal or less than 10 uM are considered active. It counts as functional. Conditions: read-out: AC50.
The target of a further test is Cytochrome P450 3A4 (Homo sapiens, UniProt P08684).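 Note: CYP3A4 tested as one member of a cytochrome P450 panel screen.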
Cytochrome P450 3A4, sequence (P08684 whole entry): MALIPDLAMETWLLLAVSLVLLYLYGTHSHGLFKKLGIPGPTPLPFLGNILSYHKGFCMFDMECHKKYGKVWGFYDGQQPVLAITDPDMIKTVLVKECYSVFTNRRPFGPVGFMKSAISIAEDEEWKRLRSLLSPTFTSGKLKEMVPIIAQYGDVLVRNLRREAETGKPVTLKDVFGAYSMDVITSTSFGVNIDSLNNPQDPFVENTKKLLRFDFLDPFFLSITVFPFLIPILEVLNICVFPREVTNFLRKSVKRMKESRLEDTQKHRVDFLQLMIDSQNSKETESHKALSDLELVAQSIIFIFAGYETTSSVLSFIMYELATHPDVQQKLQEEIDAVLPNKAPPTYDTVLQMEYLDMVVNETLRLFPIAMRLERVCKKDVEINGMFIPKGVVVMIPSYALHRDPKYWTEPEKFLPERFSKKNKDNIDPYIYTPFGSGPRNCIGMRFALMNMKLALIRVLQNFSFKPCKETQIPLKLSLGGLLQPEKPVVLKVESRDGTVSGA
Test [2] concerns the target T1, Rac GTPase-activating protein 1 (Homo sapiens, UniProt Q9H0H5).
T1 sequence (Q9H0H5 whole entry): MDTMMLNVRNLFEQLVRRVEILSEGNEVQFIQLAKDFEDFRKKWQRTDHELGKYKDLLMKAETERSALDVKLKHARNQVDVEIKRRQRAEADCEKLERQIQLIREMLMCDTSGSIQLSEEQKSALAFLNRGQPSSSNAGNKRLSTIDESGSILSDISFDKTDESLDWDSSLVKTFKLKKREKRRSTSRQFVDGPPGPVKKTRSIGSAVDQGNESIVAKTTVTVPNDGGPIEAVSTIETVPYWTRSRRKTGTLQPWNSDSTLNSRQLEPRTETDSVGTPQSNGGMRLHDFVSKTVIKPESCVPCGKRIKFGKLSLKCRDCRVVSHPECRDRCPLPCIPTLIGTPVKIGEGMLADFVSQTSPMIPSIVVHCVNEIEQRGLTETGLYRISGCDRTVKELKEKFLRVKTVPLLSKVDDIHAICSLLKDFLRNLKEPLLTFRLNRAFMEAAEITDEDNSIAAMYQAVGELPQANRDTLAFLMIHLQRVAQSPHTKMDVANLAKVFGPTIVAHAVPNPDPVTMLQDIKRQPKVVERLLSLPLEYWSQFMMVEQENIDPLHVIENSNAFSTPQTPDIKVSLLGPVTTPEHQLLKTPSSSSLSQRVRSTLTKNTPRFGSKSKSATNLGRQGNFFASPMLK
The test is described as follows: MgcRacGAP GTPase-activating activity inhibitors, confirmation, biochemical, ADP Hunter fluorescence, primary and confirmatory (AID 624330). It counts as functional.

Test [3] in a line: Shn3 3'UTR reporter inhibitors, dose response, cell-based, Clone20 osteoblasts, firefly luciferase, cherry-picked (AID 624132).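 Note: firefly luciferase luminescence from reporter carrying the Shn3 3'UTR in osteoblasts.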 The class given is functional.
A short description of test [4]: HepG2 cell cytotoxicity, dose response, cytotoxicity control for Shn3 inhibitor project, CellTiter-Glo, cherry-picked (AID 624134). The class given is functional, cell-based. (ATP-based viability assays read luminescence as a measure of living cells.)
Test [5] can be described thus: control 3'UTR Renilla luciferase suppression, dose response, counter-screen for Shn3 inhibitor project, cell-based, Clone20-Shn3RL, cherry-picked (AID 624133). The class given is functional. Background: Counterscreens check selectivity or assay interference.
The target of the next test is T2, Protein RecA (Mycobacterium tuberculosis, UniProt P9WHJ3).
T2 sequence (P9WHJ3 whole entry): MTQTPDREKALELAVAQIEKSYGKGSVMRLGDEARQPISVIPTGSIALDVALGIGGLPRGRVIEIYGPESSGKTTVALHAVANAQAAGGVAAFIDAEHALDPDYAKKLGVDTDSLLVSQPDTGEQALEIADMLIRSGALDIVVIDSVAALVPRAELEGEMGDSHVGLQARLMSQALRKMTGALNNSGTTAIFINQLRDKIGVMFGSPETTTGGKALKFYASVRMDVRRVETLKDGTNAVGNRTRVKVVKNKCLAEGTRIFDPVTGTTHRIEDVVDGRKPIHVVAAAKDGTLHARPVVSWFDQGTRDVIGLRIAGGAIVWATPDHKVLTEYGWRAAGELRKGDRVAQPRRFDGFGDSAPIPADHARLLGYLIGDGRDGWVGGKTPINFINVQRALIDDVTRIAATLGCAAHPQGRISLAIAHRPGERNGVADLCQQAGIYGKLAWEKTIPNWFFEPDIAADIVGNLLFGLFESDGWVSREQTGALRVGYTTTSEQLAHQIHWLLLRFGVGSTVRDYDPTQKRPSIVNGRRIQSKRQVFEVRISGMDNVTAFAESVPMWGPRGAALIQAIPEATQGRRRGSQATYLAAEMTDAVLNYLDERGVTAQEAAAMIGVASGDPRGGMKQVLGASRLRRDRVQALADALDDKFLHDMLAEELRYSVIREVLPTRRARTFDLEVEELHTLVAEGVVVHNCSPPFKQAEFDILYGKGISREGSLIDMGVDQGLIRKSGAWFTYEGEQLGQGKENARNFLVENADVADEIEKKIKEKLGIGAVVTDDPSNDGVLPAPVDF
Description: Fluorescence Cell-Free Homogeneous Dose Retest to Identify Inhibitors of RecA-Intein Splicing Activity. [Related pubchem assays (depositor defined):AID2097, AID2223, AID489010, AID492950]. It counts as functional.

Test [6] deals with T3, Replicative DNA helicase DnaB (Mycobacterium tuberculosis, UniProt P9WMR3).
T3 sequence (P9WMR3 whole entry): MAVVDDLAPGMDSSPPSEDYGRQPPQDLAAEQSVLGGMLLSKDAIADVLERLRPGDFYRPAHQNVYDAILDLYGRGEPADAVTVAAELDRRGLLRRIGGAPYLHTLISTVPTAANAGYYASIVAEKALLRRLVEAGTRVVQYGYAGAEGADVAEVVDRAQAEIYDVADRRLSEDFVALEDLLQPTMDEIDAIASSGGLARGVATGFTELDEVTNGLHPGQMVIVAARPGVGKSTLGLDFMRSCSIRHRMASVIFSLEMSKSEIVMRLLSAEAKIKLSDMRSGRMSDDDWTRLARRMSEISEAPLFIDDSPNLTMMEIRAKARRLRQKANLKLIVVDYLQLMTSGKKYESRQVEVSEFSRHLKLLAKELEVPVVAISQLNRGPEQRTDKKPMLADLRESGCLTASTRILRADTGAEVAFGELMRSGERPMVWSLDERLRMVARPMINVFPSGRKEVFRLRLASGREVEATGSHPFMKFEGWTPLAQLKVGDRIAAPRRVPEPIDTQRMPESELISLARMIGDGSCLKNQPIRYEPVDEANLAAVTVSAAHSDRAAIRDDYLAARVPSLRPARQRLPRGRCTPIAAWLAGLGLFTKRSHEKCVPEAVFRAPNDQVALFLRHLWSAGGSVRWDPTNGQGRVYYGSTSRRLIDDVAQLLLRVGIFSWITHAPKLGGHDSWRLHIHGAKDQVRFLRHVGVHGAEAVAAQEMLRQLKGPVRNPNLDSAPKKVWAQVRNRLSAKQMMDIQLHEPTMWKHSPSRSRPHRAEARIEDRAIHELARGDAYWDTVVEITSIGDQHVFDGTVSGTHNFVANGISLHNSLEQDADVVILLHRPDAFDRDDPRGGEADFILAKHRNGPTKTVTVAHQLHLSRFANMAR
The test is described as follows: DnaB intein splicing inhibitors, dose response, biochemical, cell-free fluorescence (AID 449749). It counts as functional.

Cytochrome P450 2C19, sequence (P33261 whole entry): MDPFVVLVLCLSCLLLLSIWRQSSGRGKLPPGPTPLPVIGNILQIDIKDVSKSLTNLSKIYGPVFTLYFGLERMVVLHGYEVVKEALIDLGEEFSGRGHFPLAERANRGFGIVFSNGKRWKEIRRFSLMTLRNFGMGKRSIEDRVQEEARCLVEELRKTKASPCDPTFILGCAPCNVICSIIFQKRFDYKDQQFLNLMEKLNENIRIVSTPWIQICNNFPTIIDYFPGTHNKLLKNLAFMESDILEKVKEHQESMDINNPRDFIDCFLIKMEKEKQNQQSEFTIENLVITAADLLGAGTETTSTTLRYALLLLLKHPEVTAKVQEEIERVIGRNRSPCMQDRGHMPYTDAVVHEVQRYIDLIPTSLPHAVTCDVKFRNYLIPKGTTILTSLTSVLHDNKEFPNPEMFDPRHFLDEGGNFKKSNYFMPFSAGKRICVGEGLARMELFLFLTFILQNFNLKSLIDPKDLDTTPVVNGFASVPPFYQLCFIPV

Turning to `COc1ccc(-c2sc3ccccc3c2C#CCCO)cc1`, the AC50 in test [1] is 4.81 µM (active).

For the compound `COc1cc(/C=C(/C#N)c2nc3ccccc3[nH]2)ccc1OCC(=O)Nc1ccccc1C`, the AC50 in test [1] is 0.865 µM (active).

Consider `Clc1ccccc1-c1ccc2ncnc(N3CCNCC3)c2c1`, for which the figures for the AC50 on Cytochrome P450 2C19 and at Cytochrome P450 3A4 were 31.6 µM (inconclusive) and 25.1 µM (inconclusive), respectively.

Turning to `O=[N+]([O-])c1ccc(N2CCN(CCOCCO)CC2)c([N+](=O)[O-])c1`, the IC50 in test [2] is 204 µM (active).

On to `COc1ccc(OCCn2ccnc2C)cc1`, for which the IC50 in test [2] is 136 µM (active).

For `COc1ccc(C(=O)N2CCC3(CCN(Cc4cc(C(F)(F)F)cc(C(F)(F)F)c4)CC3)CC2)cc1`, the AC50 at Cytochrome P450 3A4 was 25.1 µM (inconclusive).

For the compound `C/C(NNc1ccccc1)=C1/C(=O)NC(=O)N(c2ccccc2)C1=O`, the AC50 in test [1] is 1.05 µM (active).

`COc1ccc(Oc2ncc3nc(CCc4ccccc4)c(=O)n(C4CC4)c3n2)cc1`: the AC50 on Cytochrome P450 3A4 is 5.01 µM (inconclusive).

Consider `CCOC(=O)C1=C(N)Oc2cc(O)ccc2C1c1cccc(Cl)c1` (stereo not given), for which the AC50 in test [1] was 1.77 µM (active).

For the compound `COC(=O)c1ccccc1NC(=O)CSc1nnc(C(CO)NC(=O)c2ccccc2Cl)n1C` (stereo not given), at Cytochrome P450 3A4, the concentration at half-maximal activity (AC50) is 22.4 µM (inconclusive).

As to `CC[C@H]1CC[C@H]2[C@@H]3CC=C4C[C@H](OC(C)=O)[C@@H](N)C[C@@]4(C)[C@H]3CC[C@@]12C`, the AC50 at Cytochrome P450 3A4 was 2.51 µM (inconclusive).

As to `CN(C)CCCC1Sc2ccccc2Sc2ccccc21` (stereo not given), the IC50 in test [2] was 210 µM (active).

As for `CCOc1ccc(OCC(=O)N(CCC2=CCCCC2)c2c(N)n(Cc3ccccc3)c(=O)[nH]c2=O)cc1`, the AC50 in [1] is 3.6 µM (active); in test [3], 8.66 µM (active); in test [4], 27.3 µM (active); in test [5], 25.1 µM (active).

Take `COc1ccccc1CNCC(=O)Nc1ccccc1-n1cccc1`: the 50% inhibitory concentration (IC50) in test [2] is 179 µM (active).

As for `COc1ccc(-n2c(=O)c(C)nc3cnc(N4CCNCC4)nc32)cc1`, the AC50 on Cytochrome P450 3A4 is 25.1 µM (inconclusive).

As to `O=c1cc(N2CCOCC2)oc2c(-c3ccccc3)cccc12` [LY-294002], on Cytochrome P450 3A4, the concentration at half-maximal activity (AC50) is 10 µM (inconclusive) and 5.01 µM (inconclusive).

Consider `CC1CCN(S(=O)(=O)c2ccc3c(c2)C(Cl)(Cl)C(=O)N3)CC1`, for which the half-maximal inhibitory concentration (IC50) in [2] is 60.3 µM (active).

For the compound `COc1cc(/C=N\NC(=O)CNC(=O)C2COc3ccccc3O2)ccc1O` (stereo not given), the IC50 in [2] was 29 µM (active).

In the case of `O=C(c1ccncc1)N1CCC2(CC1)CN(c1ccc(-c3ccccc3)cc1)C2`, the AC50 on Cytochrome P450 2C19 and at Cytochrome P450 3A4 was 2.51 µM (inconclusive) in each case.

Take `COc1ccc(CN2CCC(C(N)=O)CC2)cc1OCc1ccccc1`: the IC50 in test [2] was 204 µM (active).

Consider `Nc1ccc2[nH]c(Cc3ccccc3)nc2c1`, for which, on Protein RecA, the EC50 is 55.9 µM (active). Also, in test [6], the AC50 was > 380 µM (inactive). Moreover, the 50% inhibitory concentration (IC50) in [2] was 76.2 µM (active).

Regarding `CC(C)(C)OC(=O)N1CCC(NC(=O)c2[nH]cnc2C(=O)Nc2ccc(Cl)cc2)CC1`, the AC50 in [1] is 4.79 µM (active).

With `COc1ccc2sc(-c3ccc(SC)cc3)c(-c3ccc(O)cc3)c2c1`, the AC50 in test [1] was 2.61 µM (active).

In general, AC50 refers to the concentration giving half of the maximal activity seen. What is called IC50 is the concentration that gives 50% inhibition. One may read the EC50 as the concentration needed to bring the measured effect to its halfway point.
